Test results taken from PubChem BioAssay (NCI).
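Cultured in 96-well plates, cells were exposed to test compound for 48 hours across five concentrations. TGI is the concentration that stops growth completely.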

Assays:
Assay in all cases: NCI-60 cell line screen, 48 h
UO-31 renal = system: UO-31 renal
K-562 leukemia = system: K-562 leukemia
SK-OV-3 ovarian = system: SK-OV-3 ovarian
786-0 renal = system: 786-0 renal
HOP-92 NSCLC = system: HOP-92 NSCLC
SN12C renal = system: SN12C renal
SF-268 CNS = system: SF-268 CNS
T-47D breast = system: T-47D breast
CAKI-1 renal = system: CAKI-1 renal
NCI-H460 lung = system: NCI-H460 lung
SW-620 colon = system: SW-620 colon
MDA-MB-435 = system: MDA-MB-435
MOLT-4 leukemia = system: MOLT-4 leukemia
LOX IMVI melanoma = system: LOX IMVI melanoma
HT29 colon = system: HT29 colon
PC-3 prostate = system: PC-3 prostate
RXF 393 renal = system: RXF 393 renal
NCI/ADR-RES ovarian = system: NCI/ADR-RES ovarian
HCT-116 colon = system: HCT-116 colon
KM12 colon = system: KM12 colon
EKVX NSCLC = system: EKVX NSCLC
RPMI-8226 leukemia = system: RPMI-8226 leukemia
NCI-H226 lung = system: NCI-H226 lung
NCI-H23 lung = system: NCI-H23 lung
M14 melanoma = system: M14 melanoma
OVCAR-3 ovarian = system: OVCAR-3 ovarian
DU-145 prostate = system: DU-145 prostate
OVCAR-5 ovarian = system: OVCAR-5 ovarian
A549 NSCLC = system: A549 NSCLC
IGROV1 ovarian = system: IGROV1 ovarian
MDA-MB-231 breast = system: MDA-MB-231 breast
HS 578T breast = system: HS 578T breast
ACHN renal = system: ACHN renal
NCI-H522 lung = system: NCI-H522 lung
MCF7 breast = system: MCF7 breast
CCRF-CEM leukemia = system: CCRF-CEM leukemia
SNB-75 CNS = system: SNB-75 CNS
SK-MEL-28 melanoma = system: SK-MEL-28 melanoma
HCC-2998 colon = system: HCC-2998 colon
OVCAR-4 ovarian = system: OVCAR-4 ovarian
OVCAR-8 ovarian = system: OVCAR-8 ovarian
COLO 205 colon = system: COLO 205 colon
BT-549 breast = system: BT-549 breast
HOP-62 NSCLC = system: HOP-62 NSCLC
SNB-19 CNS = system: SNB-19 CNS
SK-MEL-5 melanoma = system: SK-MEL-5 melanoma
HCT-15 colon = system: HCT-15 colon
UACC-257 melanoma = system: UACC-257 melanoma
MALME-3M melanoma = system: MALME-3M melanoma
SF-539 CNS = system: SF-539 CNS
TK-10 renal = system: TK-10 renal
SF-295 CNS = system: SF-295 CNS
MDA-N = system: MDA-N
A498 renal = system: A498 renal
U251 CNS = system: U251 CNS
SK-MEL-2 melanoma = system: SK-MEL-2 melanoma

Measured: TGI

CCOC(=O)C1=CC(C)(C(=O)OCC)Nc2c(nc(N)[nH]c2=O)N1 (stereo unspecified)
> 10 µM: UO-31 renal | K-562 leukemia | SK-OV-3 ovarian | 786-0 renal | HOP-92 NSCLC | SN12C renal | SF-268 CNS | T-47D breast | CAKI-1 renal | NCI-H460 lung | SW-620 colon | MDA-MB-435 | MOLT-4 leukemia | LOX IMVI melanoma | HT29 colon | PC-3 prostate | RXF 393 renal | NCI/ADR-RES ovarian | HCT-116 colon | KM12 colon | EKVX NSCLC | RPMI-8226 leukemia | NCI-H226 lung | NCI-H23 lung | M14 melanoma | OVCAR-3 ovarian | DU-145 prostate | OVCAR-5 ovarian | A549 NSCLC | IGROV1 ovarian | MDA-MB-231 breast | HS 578T breast | ACHN renal | NCI-H522 lung | MCF7 breast | CCRF-CEM leukemia | SNB-75 CNS | SK-MEL-28 melanoma | HCC-2998 colon | OVCAR-4 ovarian | OVCAR-8 ovarian | COLO 205 colon | BT-549 breast | HOP-62 NSCLC | SNB-19 CNS | SK-MEL-5 melanoma | HCT-15 colon | UACC-257 melanoma | MALME-3M melanoma | SF-539 CNS | TK-10 renal | SF-295 CNS | MDA-N | A498 renal | U251 CNS | SK-MEL-2 melanoma
